# Results from PubChem BioAssay AID2060614 (Molecular Pharmacology Branch, DTP, NCI, 2025).
# Test system: 598228-144-R-J1-PDC complex spheroids, viability
# Assay: Anticancer human tumor 598228-144-R-J1-PDC patient-derived serous endometrial adenocarcinoma cell line growth inhibition [CLK]
# Conditions: for IC50: curve of first compound; for viability, T/C: stronger effect = lower value
# Summary of the method: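 Patient-derived tumor cells grown as complex spheroids with HUVEC endothelial cells and mesenchymal stem cells, treated with drug combinations. Concentrations descend in half-log steps from near clinical Cmax, or from 10 microM if Cmax unknown.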
# [1] = second compound 0.0316 µM, first compound 0.0316 µM
# [2] = second compound 0.0316 µM, first compound 0.1 µM
# [3] = second compound 0.1 µM, first compound 0.0316 µM
# [4] = second compound 0.1 µM, first compound 0.1 µM
# [5] = second compound 0.316 µM, first compound 0.0316 µM
# [6] = second compound 0.316 µM, first compound 0.1 µM
# [7] = second compound 1 µM, first compound 0.0316 µM
# [8] = second compound 1 µM, first compound 0.1 µM
# [9] = second compound 3.16 µM, first compound 0.0316 µM
# [10] = second compound 3.16 µM, first compound 0.1 µM
# [11] = second compound 10 µM, first compound 0.0316 µM
# [12] = second compound 10 µM, first compound 0.1 µM
# 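Note: spheroids exposed to compounds for seven days before readout.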
# 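Throughout, for viability, T/C: 100% = DMSO vehicle control wells.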
smiles,measurement,setting,value
CC(C)CC(NC(=O)C(Cc1ccccc1)NC(=O)c1cnccn1)B(O)O (stereo unspecified) + CNC(=O)c1ccc(Nc2nc(OC3CCCC3)c3c(-c4ccc5nc(C)oc5c4)c[nH]c3n2)c(OC)c1,IC50,second compound 0.0316 µM,4.68 nM
same,IC50,second compound 0.1 µM,5.05 nM
same,IC50,second compound 0.316 µM,3.47 nM
same,IC50,second compound 1 µM,2.18 nM
same,IC50,second compound 3.16 µM,2.08 nM
same,IC50,second compound 10 µM,1.96 nM
same,"viability, T/C","second compound 0.0316 µM, first compound 0.000949 µM",111%
same,"viability, T/C","second compound 0.0316 µM, first compound 0.003 µM",79.8%
same,"viability, T/C","second compound 0.0316 µM, first compound 0.00949 µM",2.81%
same,"viability, T/C","second compound 0.0316 µM, first compound 0.03 µM",0.55%
same,"viability, T/C","second compound 0.0316 µM, first compound 0.0949 µM",0.7%
same,"viability, T/C","second compound 0.0316 µM, first compound 0.3 µM",0.37%
same,"viability, T/C","second compound 0.1 µM, first compound 0.000949 µM",127%
same,"viability, T/C","second compound 0.1 µM, first compound 0.003 µM",88.8%
same,"viability, T/C","second compound 0.1 µM, first compound 0.00949 µM",3.14%
same,"viability, T/C","second compound 0.1 µM, first compound 0.03 µM",0.58%
same,"viability, T/C","second compound 0.1 µM, first compound 0.0949 µM",0.44%
same,"viability, T/C","second compound 0.1 µM, first compound 0.3 µM",0.49%
same,"viability, T/C","second compound 0.316 µM, first compound 0.000949 µM",116%
same,"viability, T/C","second compound 0.316 µM, first compound 0.003 µM",56.7%
same,"viability, T/C","second compound 0.316 µM, first compound 0.00949 µM",3.51%
same,"viability, T/C","second compound 0.316 µM, first compound 0.03 µM",0.83%
same,"viability, T/C","second compound 0.316 µM, first compound 0.0949 µM",0.51%
same,"viability, T/C","second compound 0.316 µM, first compound 0.3 µM",0.91%
same,"viability, T/C","second compound 1 µM, first compound 0.000949 µM",128%
same,"viability, T/C","second compound 1 µM, first compound 0.003 µM",19.7%
same,"viability, T/C","second compound 1 µM, first compound 0.00949 µM",1.31%
same,"viability, T/C","second compound 1 µM, first compound 0.03 µM",0.56%
same,"viability, T/C","second compound 1 µM, first compound 0.0949 µM",0.77%
same,"viability, T/C","second compound 1 µM, first compound 0.3 µM",1.17%
same,"viability, T/C","second compound 3.16 µM, first compound 0.000949 µM",128%
same,"viability, T/C","second compound 3.16 µM, first compound 0.003 µM",13.9%
same,"viability, T/C","second compound 3.16 µM, first compound 0.00949 µM",0.9%
same,"viability, T/C","second compound 3.16 µM, first compound 0.03 µM",0.44%
same,"viability, T/C","second compound 3.16 µM, first compound 0.0949 µM",2.9%
same,"viability, T/C","second compound 3.16 µM, first compound 0.3 µM",1.57%
same,"viability, T/C","second compound 10 µM, first compound 0.000949 µM",115%
same,"viability, T/C","second compound 10 µM, first compound 0.003 µM",11.9%
same,"viability, T/C","second compound 10 µM, first compound 0.00949 µM",2.24%
same,"viability, T/C","second compound 10 µM, first compound 0.03 µM",1.62%
same,"viability, T/C","second compound 10 µM, first compound 0.0949 µM",0.46%
same,"viability, T/C","second compound 10 µM, first compound 0.3 µM",2.11%
Cn1ncnc1[C@H]1c2n[nH]c(=O)c3cc(F)cc(c23)N[C@@H]1c1ccc(F)cc1 + CNC(=O)c1ccc(Nc2nc(OC3CCCC3)c3c(-c4ccc5nc(C)oc5c4)c[nH]c3n2)c(OC)c1,IC50,second compound 0.0316 µM,> 100 nM
same,IC50,second compound 0.1 µM,> 100 nM
same,IC50,second compound 0.316 µM,> 100 nM
same,IC50,second compound 1 µM,> 100 nM
same,IC50,second compound 3.16 µM,> 100 nM
same,IC50,second compound 10 µM,> 100 nM
same,"viability, T/C","second compound 0.0316 µM, first compound 0.000316 µM",111%
same,"viability, T/C","second compound 0.0316 µM, first compound 0.001 µM",118%
same,"viability, T/C","second compound 0.0316 µM, first compound 0.00316 µM",122%
same,"viability, T/C","second compound 0.0316 µM, first compound 0.01 µM",121%
same,"viability, T/C",[1],114%
same,"viability, T/C",[2],108%
same,"viability, T/C","second compound 0.1 µM, first compound 0.000316 µM",109%
same,"viability, T/C","second compound 0.1 µM, first compound 0.001 µM",122%
same,"viability, T/C","second compound 0.1 µM, first compound 0.00316 µM",120%
same,"viability, T/C","second compound 0.1 µM, first compound 0.01 µM",121%
same,"viability, T/C",[3],112%
same,"viability, T/C",[4],96.8%
same,"viability, T/C","second compound 0.316 µM, first compound 0.000316 µM",114%
same,"viability, T/C","second compound 0.316 µM, first compound 0.001 µM",119%
same,"viability, T/C","second compound 0.316 µM, first compound 0.00316 µM",92%
same,"viability, T/C","second compound 0.316 µM, first compound 0.01 µM",115%
same,"viability, T/C",[5],118%
same,"viability, T/C",[6],98.1%
same,"viability, T/C","second compound 1 µM, first compound 0.000316 µM",112%
same,"viability, T/C","second compound 1 µM, first compound 0.001 µM",109%
same,"viability, T/C","second compound 1 µM, first compound 0.00316 µM",107%
same,"viability, T/C","second compound 1 µM, first compound 0.01 µM",117%
same,"viability, T/C",[7],117%
same,"viability, T/C",[8],99.3%
same,"viability, T/C","second compound 3.16 µM, first compound 0.000316 µM",101%
same,"viability, T/C","second compound 3.16 µM, first compound 0.001 µM",99.2%
same,"viability, T/C","second compound 3.16 µM, first compound 0.00316 µM",99.7%
same,"viability, T/C","second compound 3.16 µM, first compound 0.01 µM",118%
same,"viability, T/C",[9],104%
same,"viability, T/C",[10],105%
same,"viability, T/C","second compound 10 µM, first compound 0.000316 µM",105%
same,"viability, T/C","second compound 10 µM, first compound 0.001 µM",115%
same,"viability, T/C","second compound 10 µM, first compound 0.00316 µM",99.5%
same,"viability, T/C","second compound 10 µM, first compound 0.01 µM",105%
same,"viability, T/C",[11],82.5%
same,"viability, T/C",[12],128%
O=C(c1cc(Cc2n[nH]c(=O)c3ccccc23)ccc1F)N1CCN(C(=O)C2CC2)CC1 + CNC(=O)c1ccc(Nc2nc(OC3CCCC3)c3c(-c4ccc5nc(C)oc5c4)c[nH]c3n2)c(OC)c1,IC50,second compound 0.0316 µM,> 10000 nM
same,IC50,second compound 0.1 µM,> 10000 nM
same,IC50,second compound 0.316 µM,> 10000 nM
same,IC50,second compound 1 µM,> 10000 nM
same,IC50,second compound 3.16 µM,> 10000 nM
same,IC50,second compound 10 µM,> 10000 nM
same,"viability, T/C",[1],112%
same,"viability, T/C",[2],125%
same,"viability, T/C","second compound 0.0316 µM, first compound 0.316 µM",115%
same,"viability, T/C","second compound 0.0316 µM, first compound 1 µM",129%
same,"viability, T/C","second compound 0.0316 µM, first compound 3.16 µM",124%
same,"viability, T/C","second compound 0.0316 µM, first compound 10 µM",113%
same,"viability, T/C",[3],129%
same,"viability, T/C",[4],127%
same,"viability, T/C","second compound 0.1 µM, first compound 0.316 µM",106%
same,"viability, T/C","second compound 0.1 µM, first compound 1 µM",129%
same,"viability, T/C","second compound 0.1 µM, first compound 3.16 µM",127%
same,"viability, T/C","second compound 0.1 µM, first compound 10 µM",105%
same,"viability, T/C",[5],112%
same,"viability, T/C",[6],130%
same,"viability, T/C","second compound 0.316 µM, first compound 0.316 µM",111%
same,"viability, T/C","second compound 0.316 µM, first compound 1 µM",118%
same,"viability, T/C","second compound 0.316 µM, first compound 3.16 µM",117%
same,"viability, T/C","second compound 0.316 µM, first compound 10 µM",113%
same,"viability, T/C",[7],121%
same,"viability, T/C",[8],101%
same,"viability, T/C","second compound 1 µM, first compound 0.316 µM",99%
same,"viability, T/C","second compound 1 µM, first compound 1 µM",115%
same,"viability, T/C","second compound 1 µM, first compound 3.16 µM",123%
same,"viability, T/C","second compound 1 µM, first compound 10 µM",94%
same,"viability, T/C",[9],114%
same,"viability, T/C",[10],102%
same,"viability, T/C","second compound 3.16 µM, first compound 0.316 µM",108%
same,"viability, T/C","second compound 3.16 µM, first compound 1 µM",97.6%
same,"viability, T/C","second compound 3.16 µM, first compound 3.16 µM",106%
same,"viability, T/C","second compound 3.16 µM, first compound 10 µM",117%
same,"viability, T/C",[11],98.5%
same,"viability, T/C",[12],97.8%
same,"viability, T/C","second compound 10 µM, first compound 0.316 µM",92.6%
same,"viability, T/C","second compound 10 µM, first compound 1 µM",121%
same,"viability, T/C","second compound 10 µM, first compound 3.16 µM",109%
same,"viability, T/C","second compound 10 µM, first compound 10 µM",104%
